Source: ChEMBL document CHEMBL1909046, “DrugMatrix in vitro pharmacology data”

Assays:
[1] = biological target: Receptor tyrosine-protein kinase erbB-2 (Homo sapiens, UniProt P04626); experiment: biochemical; assay type: cell-based, Insect cells; details: insect cells;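 further: inhibition of HER2 kinase enzyme activity, measured with Poly(Glu:Tyr) as the phosphorylation substrate; in other assays of this panel Not Active means under 50% inhibition at 10 µM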
[2] = biological target: Platelet-activating factor receptor (Homo sapiens, UniProt P25105); experiment: biochemical; assay type: tissue-based; details: platelet; further: in other assays of this panel Not Active means under 50% inhibition at 10 µM
[3] = DRUGMATRIX: Glutamate, AMPA radioligand binding (ligand: [3H] AMPA); assay type: cell membranes, Rattus norvegicus, Wistar, Cerebral cortex, Membrane; details: Not Active = under 50% inhibition at 10 µM
[4] = DRUGMATRIX: Imidazoline I2, Central radioligand binding (ligand: [3H] Idazoxan); assay type: cell membranes, Rattus norvegicus, Wistar, Cerebral cortex, Membrane; details: Not Active = under 50% inhibition at 10 µM
[5] = biological target: 5-hydroxytryptamine receptor 1B (Rattus norvegicus, UniProt P28564); assay type: cell membranes, Wistar, Cerebral cortex, Membrane; further: in other assays of this panel Not Active means under 50% inhibition at 10 µM
[6] = biological target: T1, Caspase-1 (Homo sapiens, UniProt P29466); parameters: species or system Escherichia coli;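 further: Caspase-1 enzyme inhibition assay with a peptide substrate; in other assays of this panel Not Active means under 50% inhibition at 10 µM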
T1 sequence (P29466 whole entry): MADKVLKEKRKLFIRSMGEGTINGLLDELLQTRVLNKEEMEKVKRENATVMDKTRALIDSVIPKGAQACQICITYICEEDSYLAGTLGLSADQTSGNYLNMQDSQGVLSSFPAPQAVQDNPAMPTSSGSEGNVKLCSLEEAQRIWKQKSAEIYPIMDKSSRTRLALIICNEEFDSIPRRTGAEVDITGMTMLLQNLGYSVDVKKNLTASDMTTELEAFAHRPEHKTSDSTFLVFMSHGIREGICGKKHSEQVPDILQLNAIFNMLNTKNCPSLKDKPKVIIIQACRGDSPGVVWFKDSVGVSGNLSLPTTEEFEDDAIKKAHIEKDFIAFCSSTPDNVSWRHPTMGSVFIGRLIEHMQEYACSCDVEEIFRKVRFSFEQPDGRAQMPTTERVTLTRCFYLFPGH

Sequence of Receptor tyrosine-protein kinase erbB-2 (P04626 whole entry): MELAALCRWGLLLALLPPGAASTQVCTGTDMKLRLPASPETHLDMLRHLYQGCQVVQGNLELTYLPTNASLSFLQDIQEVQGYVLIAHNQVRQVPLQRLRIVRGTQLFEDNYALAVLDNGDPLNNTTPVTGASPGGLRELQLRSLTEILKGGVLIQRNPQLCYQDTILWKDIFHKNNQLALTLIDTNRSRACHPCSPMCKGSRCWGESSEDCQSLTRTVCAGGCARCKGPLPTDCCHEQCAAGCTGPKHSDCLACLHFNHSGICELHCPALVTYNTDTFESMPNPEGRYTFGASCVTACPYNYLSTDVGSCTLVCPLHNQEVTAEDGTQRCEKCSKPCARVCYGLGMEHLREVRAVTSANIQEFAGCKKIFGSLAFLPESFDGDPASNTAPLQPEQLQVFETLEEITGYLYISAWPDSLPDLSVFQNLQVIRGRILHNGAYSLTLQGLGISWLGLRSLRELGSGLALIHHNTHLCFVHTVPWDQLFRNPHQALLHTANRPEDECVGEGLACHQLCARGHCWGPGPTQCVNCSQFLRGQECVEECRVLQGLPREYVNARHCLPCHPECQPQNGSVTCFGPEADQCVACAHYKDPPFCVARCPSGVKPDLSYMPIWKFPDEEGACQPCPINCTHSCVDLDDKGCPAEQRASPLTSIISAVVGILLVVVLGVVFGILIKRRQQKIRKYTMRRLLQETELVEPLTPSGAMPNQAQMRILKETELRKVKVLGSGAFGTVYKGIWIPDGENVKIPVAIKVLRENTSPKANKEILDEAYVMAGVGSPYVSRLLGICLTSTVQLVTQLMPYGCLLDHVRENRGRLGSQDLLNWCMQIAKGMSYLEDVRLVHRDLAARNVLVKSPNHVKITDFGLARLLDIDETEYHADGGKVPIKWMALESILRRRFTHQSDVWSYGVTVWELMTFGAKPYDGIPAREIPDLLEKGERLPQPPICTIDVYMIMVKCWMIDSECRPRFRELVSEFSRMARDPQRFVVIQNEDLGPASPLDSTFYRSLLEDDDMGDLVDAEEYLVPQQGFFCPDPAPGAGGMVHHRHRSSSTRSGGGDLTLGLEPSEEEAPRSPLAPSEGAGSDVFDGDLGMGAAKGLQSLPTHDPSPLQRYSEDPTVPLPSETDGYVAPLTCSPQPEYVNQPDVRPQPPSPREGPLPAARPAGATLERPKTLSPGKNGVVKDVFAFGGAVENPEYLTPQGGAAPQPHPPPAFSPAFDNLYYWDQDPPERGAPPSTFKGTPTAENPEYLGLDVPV
Sequence of 5-hydroxytryptamine receptor 1B (P28564 whole entry): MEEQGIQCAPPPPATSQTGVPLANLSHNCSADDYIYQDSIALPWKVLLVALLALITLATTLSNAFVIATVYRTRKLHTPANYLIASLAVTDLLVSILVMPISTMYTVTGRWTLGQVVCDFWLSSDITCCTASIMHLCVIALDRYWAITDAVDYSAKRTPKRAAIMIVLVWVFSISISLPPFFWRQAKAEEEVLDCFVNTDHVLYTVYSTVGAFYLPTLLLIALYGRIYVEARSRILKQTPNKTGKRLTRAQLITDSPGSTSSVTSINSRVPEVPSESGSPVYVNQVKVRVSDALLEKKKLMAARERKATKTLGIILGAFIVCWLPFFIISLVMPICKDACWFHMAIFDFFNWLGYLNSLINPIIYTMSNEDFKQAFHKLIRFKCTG
Sequence of Platelet-activating factor receptor (P25105 whole entry): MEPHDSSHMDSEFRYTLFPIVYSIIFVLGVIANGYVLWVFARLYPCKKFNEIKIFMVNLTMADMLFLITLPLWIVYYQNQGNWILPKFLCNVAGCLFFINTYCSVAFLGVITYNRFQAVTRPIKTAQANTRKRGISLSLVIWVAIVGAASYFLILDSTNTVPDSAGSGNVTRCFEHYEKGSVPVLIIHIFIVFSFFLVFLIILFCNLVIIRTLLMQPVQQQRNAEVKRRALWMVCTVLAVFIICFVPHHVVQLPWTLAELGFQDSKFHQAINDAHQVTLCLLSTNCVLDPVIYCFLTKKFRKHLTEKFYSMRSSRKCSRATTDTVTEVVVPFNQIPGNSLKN

Row | Compound | IC50 [1] | IC50 [2] | IC50 [3] | Ki [3] | IC50 [4] | Ki [4] | IC50 [5] | IC50 [6] | IC50 ([4]; read-out: IC50) [nM] | Ki ([4]; read-out: Ki) [nM] | IC50 ([5]; read-out: IC50) [nM] | Ki ([5]; read-out: Ki) [nM]
1 | O=C(O)c1cc(=O)c2c(OCC(O)COc3cccc4oc(C(=O)O)cc(=O)c34)cccc2o1 [CROMOLYN] | Not Active | Not Active | Not Active | Not Active | Not Active | Not Active | Not Active | Not Active |  |  |  | 
2 | O=P1(N(CCCl)CCCl)NCCCO1 (stereo unspecified) [CYCLOPHOSPHAMIDE ANHYDROUS] | Not Active | Not Active | Not Active | Not Active | Not Active | Not Active | Not Active | Not Active |  |  |  | 
3 | CC(=O)O[C@]1(C(C)=O)CC[C@H]2[C@@H]3C=C(Cl)C4=CC(=O)[C@@H]5C[C@@H]5[C@]4(C)[C@H]3CC[C@@]21C [CYPROTERONE ACETATE] | Not Active | Not Active | Not Active | Not Active | Not Active | Not Active | Not Active | Not Active |  |  |  | 
4 | Nc1nc(N)nc(NC2CC2)n1 [CYROMAZINE] | Not Active | Not Active | Not Active | Not Active | Not Active | Not Active | Not Active | Not Active |  |  |  | 
5 | C#C[C@]1(O)CC[C@H]2[C@@H]3CCC4=Cc5oncc5C[C@]4(C)[C@H]3CC[C@@]21C [DANAZOL] | Not Active | Not Active | Not Active | Not Active | Not Active | Not Active | Not Active | Not Active |  |  |  | 
6 | CCN[C@@H](C)Cc1cccc(C(F)(F)F)c1 [DEXFENFLURAMINE] | Not Active | Not Active | Not Active | Not Active | Not Active | Not Active | Not Active | Not Active |  |  |  | 
7 | C[C@H](C(=O)O)c1cccc(C(=O)c2ccccc2)c1 [DEXKETOPROFEN] | Not Active | Not Active | Not Active | Not Active | Not Active | Not Active | Not Active | Not Active |  |  |  | 
8 | CN1C(=O)CN=C(c2ccccc2)c2cc(Cl)ccc21 [DIAZEPAM] | Not Active | Not Active | Not Active | Not Active | Not Active | Not Active | Not Active | Not Active |  |  |  | 
9 | CN1C[C@H](C(=O)N[C@]2(C)O[C@@]3(O)[C@@H]4CCCN4C(=O)[C@H](Cc4ccccc4)N3C2=O)C[C@@H]2c3cccc4[nH]cc(c34)C[C@H]21 [DIHYDROERGOTAMINE] | Not Active | Not Active | Not Active | Not Active |  |  |  | Not Active | 2.5 | 1.67 | 0.846 | 0.384
10 | Cc1c(N(C)CS(=O)(=O)[O-])c(=O)n(-c2ccccc2)n1C.[Na+] [DIPYRONE SODIUM] | Not Active | Not Active | Not Active | Not Active | Not Active | Not Active | Not Active | Not Active |  |  |  | 
11 | CC(CCc1ccc(O)cc1)NCCc1ccc(O)c(O)c1 (stereo unspecified) [DOBUTAMINE] | Not Active | Not Active | Not Active | Not Active | Not Active | Not Active | Not Active | Not Active |  |  |  | 
12 | CCn1cc(C(=O)O)c(=O)c2cc(F)c(N3CCNCC3)nc21 [ENOXACIN] | Not Active | Not Active | Not Active | Not Active | Not Active | Not Active | Not Active | Not Active |  |  |  | 
13 | CCC(=O)O[C@H]1[C@H](O[C@@H]2[C@@H](C)[C@H](O[C@H]3C[C@@](C)(OC)[C@@H](O)[C@H](C)O3)[C@@H](C)C(=O)O[C@H](CC)[C@@](C)(O)[C@H](O)[C@@H](C)C(=O)[C@H](C)C[C@@]2(C)O)O[C@H](C)C[C@@H]1N(C)C [ERYTHROMYCIN PROPIONATE] | Not Active | Not Active | Not Active | Not Active | Not Active | Not Active | Not Active | Not Active |  |  |  | 
14 | C=C(CC)C(=O)c1ccc(OCC(=O)O)c(Cl)c1Cl [ETHACRYNIC ACID] | Not Active | Not Active | Not Active | Not Active | Not Active | Not Active | Not Active | Not Active |  |  |  | 
15 | C#C[C@]1(O)CC[C@H]2[C@@H]3CCc4cc(O)ccc4[C@H]3CC[C@@]21C [ETHINYL ESTRADIOL] | Not Active | Not Active | Not Active | Not Active | Not Active | Not Active | Not Active | Not Active |  |  |  | 
16 | OCCO [ETHYLENE GLYCOL] | Not Active | Not Active | Not Active | Not Active | Not Active | Not Active | Not Active | Not Active |  |  |  | 
17 | CC(=O)OCC(CCn1cnc2cnc(N)nc21)COC(C)=O [FAMCICLOVIR] | Not Active | Not Active | Not Active | Not Active | Not Active | Not Active | Not Active | Not Active |  |  |  | 
18 | O=C(O)Cc1ccc(-c2ccccc2)cc1 [FELBINAC] | Not Active | Not Active | Not Active | Not Active | Not Active | Not Active | Not Active | Not Active |  |  |  | 
19 | CCOC(=O)C1=C(C)NC(C)=C(C(=O)OC)C1c1cccc(Cl)c1Cl (stereo unspecified) [FELODIPINE] | Not Active | Not Active | Not Active | Not Active | Not Active | Not Active | Not Active | Not Active |  |  |  | 
20 | CC(C(=O)O)c1ccc(-c2ccccc2)c(F)c1 (stereo unspecified) [FLURBIPROFEN] | Not Active | Not Active | Not Active | Not Active | Not Active | Not Active | Not Active | Not Active |  |  |  | 
21 | Cc1cn[nH]c1 [FOMEPIZOLE] | Not Active | Not Active | Not Active | Not Active | Not Active | Not Active | Not Active | Not Active |  |  |  | 
22 | NC[C@@H]1O[C@H](O[C@H]2[C@@H](O)[C@H](O[C@@H]3[C@@H](O)[C@H](N)C[C@H](N)[C@H]3O[C@H]3O[C@H](CN)[C@@H](O)[C@H](O)[C@H]3N)O[C@@H]2CO)[C@H](N)[C@@H](O)[C@@H]1O [FRAMYCETIN] | Not Active | Not Active | Not Active | Not Active | Not Active | Not Active | Not Active | Not Active |  |  |  | 
23 | C[C@H]([C@](O)(Cn1cncn1)c1ccc(F)cc1F)S(C)(=O)=O [GENACONAZOLE] | Not Active | Not Active | Not Active | Not Active | Not Active | Not Active | Not Active | Not Active |  |  |  | 
24 | Cc1c(F)c(N2CCNC(C)C2)cc2c1c(=O)c(C(=O)O)cn2C1CC1 (stereo unspecified) [GREPAFLOXACIN] | Not Active | Not Active | Not Active | Not Active | Not Active | Not Active | Not Active | Not Active |  |  |  | 
25 | COc1ccccc1OCC(O)CO (stereo unspecified) [GUAIFENESIN] | Not Active | Not Active | Not Active | Not Active | Not Active | Not Active | Not Active | Not Active |  |  |  | 
26 | N=C(N)N/N=C/c1c(Cl)cccc1Cl [GUANABENZ] | Not Active | Not Active | Not Active | Not Active |  |  | Not Active | Not Active | 18 | 12 |  | 
27 | C[C@]12CCC(=O)C=C1CC[C@@H]1[C@@H]2[C@@H](O)C[C@@]2(C)[C@H]1CC[C@]2(O)C(=O)CO [HYDROCORTISONE] | Not Active | Not Active | Not Active | Not Active | Not Active | Not Active | Not Active | Not Active |  |  |  | 
28 | C/C=C\c1ccc(O)c(OC)c1 [ISOEUGENOL] | Not Active | Not Active | Not Active | Not Active | Not Active | Not Active | Not Active | Not Active |  |  |  | 
29 | NC[C@H]1O[C@H](O[C@H]2[C@H](O)[C@@H](O[C@H]3O[C@H](CO)[C@@H](O)[C@H](N)[C@H]3O)[C@H](N)C[C@@H]2N)[C@H](O)[C@@H](O)[C@@H]1O [KANAMYCIN] | Not Active | Not Active | Not Active | Not Active | Not Active | Not Active | Not Active | Not Active |  |  |  | 
30 | CC[C@H](C)C(=O)O[C@H]1C[C@@H](C)C=C2C=C[C@H](C)[C@H](CC[C@@H]3C[C@@H](O)CC(=O)O3)[C@H]21 [LOVASTATIN] | Not Active | Not Active | Not Active | Not Active | Not Active | Not Active | Not Active | Not Active |  |  |  | 
